Active and inactive are the calls of the source. No rule for the calls is given here.
tested on: VEGF-stimulated ADSC/ECFC co-culture, nuclear area imaging; assay: nuclear area loss in endothelial-stromal co-culture, dose response, cell-based, VEGF stimulation, IC50 (AID 1117324)

**Q.** For `O=C(O)C1(C(=O)O)CCC1.[NH2-].[NH2-].[Pt+2]`, which IC50 is on record?
**A.** The IC50 was > 10 µM (inactive).

**Q.** For `CC[C@H](C)C(=O)O[C@H]1C[C@@H](C)C=C2C=C[C@H](C)[C@H](CC[C@@H]3C[C@@H](O)CC(=O)O3)[C@H]21`, which IC50 is on record?
**A.** The IC50 was > 10 µM (inactive).

**Q.** With `Cc1ccc([N+](=O)[O-])[c]2c1[O][Hg]2` as the compound, how does the IC50 read?
**A.** Its IC50 is 1.09 µM.

**Q.** `O=C1NCCN1CCN1CCC(c2cn(-c3ccc(F)cc3)c3ccc(Cl)cc23)CC1` was tested. Which IC50 did it give?
**A.** Its IC50 is > 10 µM (inactive).

**Q.** With `COc1cccc2c1C(=O)c1c(O)c3c(c(O)c1C2=O)C[C@@](O)(C(=O)CO)CC3OC1CC(N2CCOC(OC)C2)C(O)C(C)O1` (some centres not stated) as the compound, how does the IC50 read?
**A.** Its IC50 is 0.0442 µM.

**Q.** How did the IC50 turn out when `CCCCCCCCCCCCCCCCCC[N+](C)(C)CCC[Si](OC)(OC)OC` was run?
**A.** The IC50 was > 10 µM (inactive).

**Q.** Which IC50 does the source give for `O=C(CCN1CCC(c2ccccc2)C1)c1ccc2c(c1)OCCO2` (configuration not stated) here?
**A.** The IC50 was > 10 µM (inactive).

**Q.** `S=c1nc[nH]c2nc[nH]c12` was tested. Which IC50 did it give?
**A.** The IC50 was > 10 µM (inactive).

**Q.** How did the IC50 turn out when `CCC=CCC=CCC=CCCCCCCCC(=O)O` was run?
**A.** The IC50 was > 10 µM (inactive).

**Q.** Which IC50 does the source give for `OC[C@H]1O[C@@H](n2cnc3c(=S)nc[nH]c32)[C@H](O)[C@@H]1O` here?
**A.** The IC50 was > 10 µM (inactive).

**Q.** Which IC50 does the source give for `NCCNc1ccc(NCCN)c2c1C(=O)c1ccncc1C2=O` here?
**A.** Its IC50 is > 10 µM (inactive).

**Q.** `Clc1ccc(C(Cn2ccnc2)OCc2ccsc2Cl)c(Cl)c1` (configuration not stated) was tested. Which IC50 did it give?
**A.** Its IC50 is 9.47 µM (inactive).

**Q.** `COc1cc(S(N)(=O)=O)cc(C(=O)O)c1OC` was tested. Which IC50 did it give?
**A.** The IC50 was > 10 µM (inactive).

**Q.** With `Oc1c(I)cc(Cl)c2cccnc12` as the compound, how does the IC50 read?
**A.** The IC50 was > 10 µM (inactive).

**Q.** How did the IC50 turn out when `CCCSS/C(CCO)=C(\C)N(C=O)Cc1cnc(C)nc1N` was run?
**A.** The IC50 was > 10 µM (inactive).

**Q.** With `COC(=O)Nc1nc2ccc(C(=O)c3ccccc3)cc2[nH]1` as the compound, how does the IC50 read?
**A.** The IC50 was > 10 µM (inactive).

**Q.** With `CCCCCCCCCCCCCCCC[N+](C)(C)CCN(Cc1ccc(OC)cc1)c1ncccn1` as the compound, how does the IC50 read?
**A.** Its IC50 is > 10 µM (inactive).

**Q.** `CC(C)(C)C1CCC(CC2=C(O)c3ccccc3C(=O)C2=O)CC1` (configuration not stated) was tested. Which IC50 did it give?
**A.** The IC50 was > 10 µM (inactive).

**Q.** `CC(C)(CO)[C@@H](O)C(=O)NCCC(=O)NCCSSCCNC(=O)CCNC(=O)[C@H](O)C(C)(C)CO` was tested. Which IC50 did it give?
**A.** The IC50 was > 10 µM (inactive).

**Q.** For `COC(=O)Nc1nc2ccc(S(=O)c3ccccc3)cc2[nH]1` (configuration not stated), which IC50 is on record?
**A.** Its IC50 is > 10 µM (inactive).

**Q.** `COCC(=O)O[C@]1(CCN(C)CCCc2nc3ccccc3[nH]2)CCc2cc(F)ccc2[C@@H]1C(C)C` was tested. Which IC50 did it give?
**A.** The IC50 was > 10 µM (inactive).

**Q.** How did the IC50 turn out when `C1CN(P2(N3CC3)=NP(N3CC3)(N3CC3)=NP(N3CC3)(N3CC3)=N2)CCO1` (configuration not stated) was run?
**A.** Its IC50 is > 10 µM (inactive).

**Q.** For `O=c1[nH]cc(F)c(=O)[nH]1`, which IC50 is on record?
**A.** Its IC50 is > 10 µM (inactive).

**Q.** How did the IC50 turn out when `CN[C@@H]1C[C@@H](c2ccc(Cl)c(Cl)c2)c2ccccc21` was run?
**A.** The IC50 was > 10 µM (inactive).

**Q.** `CC(=O)[C@]1(O)Cc2c(O)c3c(c(O)c2[C@@H](O[C@H]2C[C@H](N)[C@H](O)[C@H](C)O2)C1)C(=O)c1ccccc1C3=O` was tested. Which IC50 did it give?
**A.** The IC50 was 0.538 µM.

**Q.** How did the IC50 turn out when `CCOC(=O)C1=C(C)NC(C)=C(C(=O)OCC)C1c1ccccc1/C=C/C(=O)OC(C)(C)C` was run?
**A.** Its IC50 is > 10 µM (inactive).

**Q.** With `CCC1C(=O)OCC1Cc1cncn1C` (configuration not stated) as the compound, how does the IC50 read?
**A.** Its IC50 is > 10 µM (inactive).

**Q.** With `CO[C@@H]1[C@@H](OC)[C@H](C)[C@@](O)(CC(=O)O)O[C@H]1[C@H](C)[C@H]1O[C@@]2(CC[C@@](C)([C@H]3CC[C@@](C)([C@@H]4O[C@@H]([C@H]5O[C@](C)(O)[C@H](C)C[C@@H]5C)C[C@@H]4OC4C[C@H](OC)[C@@H](OC)[C@H](C)O4)O3)O2)C[C@H](O)[C@H]1C` (some centres not stated) as the compound, how does the IC50 read?
**A.** The IC50 was 2.57 µM.

**Q.** `O=C1C(=O)c2ccccc2C(O)=C1C1CCC(c2ccc(Cl)cc2)CC1` (configuration not stated) was tested. Which IC50 did it give?
**A.** The IC50 was > 10 µM (inactive).

**Q.** How did the IC50 turn out when `COc1c(C)c2c(c(O)c1C/C=C(\C)CCC(=O)OCCN1CCOCC1)C(=O)OC2` was run?
**A.** The IC50 was > 10 µM (inactive).

**Q.** How did the IC50 turn out when `CCN(CC)CCCC(C)Nc1c2ccc(Cl)cc2nc2ccc(OC)cc12` (configuration not stated) was run?
**A.** Its IC50 is > 10 µM (inactive).

**Q.** `Oc1ccc2[nH]cc(CCCCN3CC=C(c4ccccc4)CC3)c2c1` was tested. Which IC50 did it give?
**A.** The IC50 was > 10 µM (inactive).

**Q.** How did the IC50 turn out when `CN1CC[C@H](c2c(O)cc(O)c3c(=O)cc(-c4ccccc4Cl)oc23)[C@H](O)C1` was run?
**A.** The IC50 was 0.328 µM.

**Q.** `CCC(C)n1ncn(-c2ccc(N3CCN(c4ccc(OC[C@H]5CO[C@](Cn6cncn6)(c6ccc(Cl)cc6Cl)O5)cc4)CC3)cc2)c1=O` (some centres not stated) was tested. Which IC50 did it give?
**A.** Its IC50 is > 10 µM (inactive).

**Q.** With `CCCOc1ccc2nc(NC(=O)OC)[nH]c2c1` as the compound, how does the IC50 read?
**A.** The IC50 was > 10 µM (inactive).

**Q.** How did the IC50 turn out when `COC(=O)C1=C(C)NC(C)=C(C(=O)OC(C)(C)CN(C)CCC(c2ccccc2)c2ccccc2)C1c1cccc([N+](=O)[O-])c1` (configuration not stated) was run?
**A.** Its IC50 is > 10 µM (inactive).

**Q.** For `O=[N+]([O-])c1cccc(S(=O)(=O)NCCNS(=O)(=O)c2cccc([N+](=O)[O-])c2)c1`, which IC50 is on record?
**A.** Its IC50 is > 10 µM (inactive).

**Q.** How did the IC50 turn out when `CCCCCCCCCCCCCCCC[N+](C)(C)Cc1ccccc1` was run?
**A.** Its IC50 is > 10 µM (inactive).

**Q.** How did the IC50 turn out when `Oc1cc(Cl)ccc1Oc1ccc(Cl)cc1Cl` was run?
**A.** Its IC50 is 8.1 µM (inactive).

**Q.** Which IC50 does the source give for `O=c1oc2c(O)c(O)cc3c(=O)oc4c(O)c(O)cc1c4c23` here?
**A.** Its IC50 is > 10 µM (inactive).

**Q.** Which IC50 does the source give for `CCCCCCCC(=O)OCC(COC(=O)CCCCCCC)OC(=O)CCCCCCC` here?
**A.** The IC50 was > 10 µM (inactive).

**Q.** `CC(=O)NC(=O)c1ccccc1O` was tested. Which IC50 did it give?
**A.** Its IC50 is > 10 µM (inactive).

**Q.** For `CCOC(=O)C1=C[C@]2(CC)CCCN3CCc4c(n1c1ccccc41)[C@@H]32`, which IC50 is on record?
**A.** Its IC50 is > 10 µM (inactive).

**Q.** For `CCCCCCCCCCCCCC[N+](C)(C)Cc1ccccc1`, which IC50 is on record?
**A.** Its IC50 is 8.36 µM (inactive).

**Q.** `CCC(C)(C)C(=O)O[C@H]1C[C@@H](C)C=C2C=C[C@H](C)[C@H](CC[C@@H]3C[C@@H](O)CC(=O)O3)[C@H]21` was tested. Which IC50 did it give?
**A.** Its IC50 is 5.13 µM (inactive).

**Q.** How did the IC50 turn out when `CCCCC1C(=O)N(c2ccccc2)N(c2ccc(O)cc2)C1=O` (configuration not stated) was run?
**A.** Its IC50 is 8.83 µM (inactive).

**Q.** With `O=C1c2ccccc2C(=O)C1C(=O)C(c1ccccc1)c1ccccc1` as the compound, how does the IC50 read?
**A.** The IC50 was > 10 µM (inactive).

Source: PubChem BioAssay AID1117324 (Cheminformatics & Chemogenomics Research Group (CCRG), …, 2015)
